Experiments:
[1] = test system: C17-2 mouse brain neural stem cells; test: Cell proliferation of mouse brain neural stem cells (MTT, OD 490 nm); format: cell-based; details: for Cell proliferation %: control group = 100%; for promotion effects on cell proliferation of mouse brain neural stem cells: at doses of 0.1 μM and 1 μM
Experimental: C17-2 mouse brain neural stem cells (C17-2 cells) were continuously cultured in 1640 medium with 10% horse serum and 10% fetal bovine serum at 5% CO2 and 37° C., dissociated to single cell suspension by 0.1% trypsin solution, centrifuged at 1,000 rpm×5 min and rinsed with medium. The cells were seeded in a 96-well plate, 1×10^3 cells per well, 3 well per group, continuously cultured. After 24 hours, the test compounds were added, doses of each of the C5-hydroxyl substituted clausenamides and N-substituted clausenamide derivatives were 0.1 μM, 1 μM and 10 μM respectively. The growth situation of the cells was observed under a microscope, once daily. At the 4th day, media in each well were pipetted, phosphate buffer solution containing MTT was added. 4 Hours later, the fluid was discarded, and a DMSO solution was added. The cells were incubated at 37° C. for 10 min under shaken. OD values on 490 nm of each well were detected. Set the growth rate of the control group as 100%, and the growth rates of each dose were given by comparison with the control group and t-tested.

rat hippocampus = test: LTP / synaptic transmission in rat hippocampus (population spike amplitude, dentate gyrus); format: in vivo; details: for Relative PS (PSA %): lateral ventricle, prior administration = 100; for effects on synaptic transmission: P<0.05 vs. control, n=5
Excerpt: Male adult SD Rats (5 per group) were anesthetized with 20% (w/v) urethane carbamate (1.0 g·kg^−1, ip) and fixed in a stereotaxic head holder. According to the reference of Pellegrino stereotaxic spectrum of rat, recording electrodes (stainless steel needle of 0.2 mm diameter were insulted except for 0.2 mm tip) were placed in the dentate gyrus granule cell layer. The stimulating electrodes (two stainless steel needles of 0.15 mm diameter coated with Teflon except for the 0.2 mm tip, and the distance between two needles was 0.5 mm) were planted between the fibre of perforant path (PP) in rat. Continuous pulse was provided by electronic stimulator, and delivered to PP through stimulus isolator and stimulating electrodes. Electrode depth was then adjusted until a typical excitatory postsynaptic potential (EPSP) was observed. Electric current was magnified by amplifier and collected by computer, then processed by DataWave software. The stimulus intensity was adjusted to produce population spike (PS) with a slope that was ≈50% of the maximum. Single-pulse test stimuli were at an interval of 30 sec during the experiment. Population spike amplitude (PSA) was recorded and the relatively percent of PSA was calculated according to the formula (PSA/basic value).

[2] = dose 10^−5 M, MTT at 4th day, OD 490 nm
[3] = dose 10^−6 M, MTT at 4th day, OD 490 nm
[4] = dose 10^−7 M, MTT at 4th day, OD 490 nm

Molecule | Result (OD value) [1, 2] | Cell proliferation % ([1]; dose 10^−5 M) [%] | Result (OD value) [1, 3] | Cell proliferation % ([1]; dose 10^−6 M) [%] | Result (OD value) [1, 4] | Cell proliferation % ([1]; dose 10^−7 M) [%] | Relative PS (PSA %) (rat hippocampus; 15 min after administration) [%] | Relative PS (PSA %) (rat hippocampus; 30 min after administration) [%] | Relative PS (PSA %) (rat hippocampus; 45 min after administration) [%] | Relative PS (PSA %) (rat hippocampus; 60 min after administration) [%] | effects on synaptic transmission (rat hippocampus) | effects on cell proliferation of mouse brain neural stem cells (conclusion) [1] | promotion effects on cell proliferation of mouse brain neural stem cells [1] | Result (OD value) ([1]; positive control, dose 5 mg/L) | Cell proliferation % ([1]; positive control, dose 5 mg/L) [%]
NC(=O)CN1C(=O)C(O)C(c2ccccc2)C1C(O)c1ccccc1 (racemic) [(±)III1, N-(aminocarbonyl-methylene)-norclausenamide] | 0.104 ± 0.009 | 75.91 | 0.205 ± 0.006 | 149.64 | 0.240 ± 0.017 | 175.18 | 85.24 ± 17.41 | 79.82 ± 22.33 | 96.00 ± 19.78 | 117.37 ± 13.49 | – | – | – | – | –
O=C(O)CN1C(=O)C(O)C(c2ccccc2)C1C(O)c1ccccc1 (racemic) [(±)III2] | 0.100 ± 0.018 | 72.99 | 0.175 ± 0.006 | 127.74 | 0.218 ± 0.012 | 159.12 | 99.41 ± 9.27 | 117.34 ± 14.74 | 140.2 ± 10.96 | 153.36 ± 13.23 | – | – | – | – | –
CC(=O)OCN1C(=O)C(O)C(c2ccccc2)C1C(O)c1ccccc1 (racemic) [(±)III3, N-acetoxymethylene-norclausenamide] | – | – | – | – | – | – | – | – | – | – | significantly upstanding effects | – | – | – | –
Cc1cccc(C)c1NC(=O)CN1C(=O)C(O)C(c2ccccc2)C1C(O)c1ccccc1 (racemic) [(±)III5] | 0.171 ± 0.035 | 124.82 | 0.227 ± 0.011 | 165.69 | 0.304 ± 0.051 | 221.90 | 87.51 ± 19.57 | 97.43 ± 32.15 | 111.47 ± 46.02 | 137.15 ± 57.17 | – | significant effects | significant promotion effects | – | –
O=C1C(O)C(c2ccccc2)C(C(O)c2ccccc2)N1Cc1ccccc1 (racemic) [(±)III8] | 0.096 ± 0.022 | 70.07 | 0.144 ± 0.038 | 105.11 | 0.221 ± 0.043 | 161.31 | 67.75 ± 26.84 | 68.48 ± 21.15 | 79.25 ± 16.62 | 98.97 ± 14.26 | – | – | – | – | –
COc1ccc(CN2C(=O)C(O)C(c3ccccc3)C2C(O)c2ccccc2)cc1 (racemic) [(±)III9] | 0.120 ± 0.027 | 87.59 | 0.138 ± 0.012 | 100.73 | 0.212 ± 0.011 | 154.74 | 115.6 ± 17.94 | 107.18 ± 20.09 | 103.77 ± 15.36 | 112.72 ± 8.95 | – | – | – | – | –
CN1C(=O)C(O)C(c2ccccc2)C1=Cc1ccccc1 (single isomer, unassigned) [(−)Δ^5,6-I, (−)-Δ^5,6-clausenamide] | 0.076 ± 0.016 | 55.47 | 0.165 ± 0.011 | 120.44 | 0.246 ± 0.005 | 179.56 | 123.37 ± 14.80 | 138.79 ± 10.94 | 158.89 ± 23.04 | 181.50 ± 35.88 | significantly upstanding effects | – | – | – | –
CC(=O)OCN1C(=O)C(O)C(c2ccccc2)C1C(O)c1ccccc1 (single isomer, unassigned; (-)) [(−)III3, N-acetoxymethylene-norclausenamide] | 0.061 ± 0.007 | 44.53 | 0.147 ± 0.021 | 107.30 | 0.217 ± 0.024 | 158.39 | 90.33 ± 16.11 | 100.15 ± 7.48 | 118.33 ± 25.07 | 141.37 ± 30.83 | – | – | – | – | –
CN1C(=O)[C@@H](O)[C@H](c2ccccc2)[C@]1(O)[C@H](O)c1ccccc1 [(+)II1, (+)-(3S,4S,5S,6R)-5-hydroxy-clausenamide] | 0.093 ± 0.007 | 67.88 | 0.264 ± 0.036 | 192.70 | 0.250 ± 0.016 | 182.48 | 144.86 ± 49.53 | 168.02 ± 49.16 | 194.32 ± 56.65 | 233.24 ± 55.62 | significantly upstanding effects | – | – | – | –
CN1C(=O)[C@@H](O)[C@H](c2ccccc2)[C@@]1(O)[C@@H](O)c1ccccc1 [(+)II2, (+)-(3S,4S,5R,6S)-5-hydroxy-clausenamide] | 0.076 ± 0.008 | 55.47 | 0.220 ± 0.023 | 160.58 | 0.175 ± 0.059 | 127.74 | 81.48 ± 6.13 | 77.33 ± 8.93 | 82.56 ± 1.87 | 99.92 ± 6.26 | – | – | – | – | –
CN1C(=O)[C@H](O)[C@@H](c2ccccc2)[C@@]1(O)[C@H](O)c1ccccc1 [(+)II3, (+)-(3R,4R,5R,6R)-5-hydroxy-clausenamide] | 0.131 ± 0.009 | 95.62 | 0.199 ± 0.024 | 145.26 | 0.253 ± 0.020 | 184.67 | 91.74 ± 17.21 | 117.87 ± 14.93 | 161.14 ± 13.94 | 188.03 ± 5.28 | significantly upstanding effects | significant effects | significant promotion effects | – | –
CC(=O)O[C@@H]1C(=O)N(C)[C@@](O)([C@H](O)c2ccccc2)[C@H]1c1ccccc1 [(−)-3-O-AC-II1, (−)-(3S,4S,5S,6R)-3-O-acetyl-5-hydroxy-clausenamide] | 0.063 ± 0.014 | 45.99 | 0.072 ± 0.006 | 52.55 | 0.179 ± 0.004 | 130.66 | 78.91 ± 13.90 | 83.73 ± 13.59 | 94.60 ± 8.87 | 102.66 ± 2.88 | – | – | – | – | –
CN1C(=O)[C@H](O)[C@@H](c2ccccc2)[C@@]1(O)[C@@H](O)c1ccccc1 [(−)II1, (−)-(3R,4R,5R,6S)-5-hydroxy-clausenamide] | 0.126 ± 0.016 | 91.97 | 0.236 ± 0.049 | 172.26 | 0.256 ± 0.020 | 186.86 | – | – | – | – | – | significant effects | significant promotion effects | – | –
CN1C(=O)[C@H](O)[C@@H](c2ccccc2)[C@]1(O)[C@H](O)c1ccccc1 [(−)II2, (−)-(3R,4R,5S,6R)-5-hydroxy-clausenamide] | 0.156 ± 0.095 | 113.87 | 0.163 ± 0.038 | 118.98 | 0.233 ± 0.033 | 170.07 | 110.55 ± 7.27 | 103.09 ± 10.12 | 94.49 ± 10.53 | 88.40 ± 14.42 | – | – | – | – | –
fibroblast growth factor [FGF, reference compound] | – | – | – | – | – | – | – | – | – | – | – | – | – | 0.340 ± 0.035 | 248.17

Source: patent US20060167276A1, “Clausenamide c5-hydroxyl derivatives and n-substituted derivatives, processes for their preparation, its composition and use” (priority 2002, published 2006)
